Test results taken from patent EP4741395A1, “NOVEL COMPOUND SENSITIVE TO NITROGEN MONOXIDE AND PHARMACEUTICAL COMPOSITION COMPRISING SAME” (Omniamed Co. Ltd, priority 2023, dated 2025).

What was measured:
[1] = mouse, in vivo, po, 800 mg/kg
[2] = Hematological toxicity evaluation after single oral administration (routine blood test)
[3] = Efficacy on collagen-induced rheumatoid arthritis (arthritis score); assay type: in vivo, DBA/1 male mice
Protocol: (§1) The experimental animals were 30 8-week-old DBA/1 male mice. […] The number of normal mice was set to five in order to minimize the number of experimental animals. The group administered with Compound (1) consisted of 5 to 6 mice, a minimal number required to obtain statistically meaningful data given the limited amount of the drug.
(§2) In order to establish a rheumatoid arthritis model, 100 µL of a mixture solution in which 2 mg/mL of chick type II collagen and 1 mg/mL of Complete Freund's Adjuvant (CFA) were mixed in a ratio of 1:1 was administered intradermally to each of the mouse tails. After 19 days, 100 µL of an emulsion in which 2 mg/mL of chick type II collagen and Incomplete Freund's Adjuvant (IFA) were mixed in a ratio of 1:1 was administered intradermally to each of the mouse tails.
The test substances of Table 23 were administered orally every day according to the drug dosing period and dosing frequency. As for the rheumatoid arthritis score (arthritis score), the score of each of the four paws was quantified according to the criteria shown in the following Table 24, and the individual scores were summed to generate the final score.
as §1, with “31” for “30”, “(11)” for “(1)”, “5” for “5 to 6”, “drug. Each of the remaining groups consisted of 7 mice, with two extra mice added to account for experimental error.” for “drug.”
as §2
Oral administration was conducted daily according to the dose, dosing frequency and dosing period of Table 25. Based on the criteria shown in Table 24, rheumatoid arthritis score for the four paws were quantified and summed to generate the score.

[4] = in vivo; settings: male, C57BL/6, mouse, in vivo, po
Protocol: Specifically, the experimental animals were twelve six-week-old C57BL/6 male mice. The experimental animals were housed in polycarbonate cages in groups of four, and had free access to food and water. The animal housing room was maintained at a temperature of 20±1°C and humidity of about 50±5%, with a constant 12-hour light/dark cycle. The experimental animals were acclimated to the animal room environment for one week, and then randomly divided into three groups of four animals each based on body weight.

[5] = HPLC analysis of nitrogen monoxide sensitivity (release of the low-molecular-weight compound); assay type: physicochemical; settings: NaNO2 / sulfuric acid, 1 hour, room temperature; FIGS. 2A to 2C
Protocol: It was checked whether the pharmaceutical composition sensitive to nitrogen monoxide including the compound according to each of the Examples is capable of releasing a low-molecular-weight compound having pharmaceutical activity by separating a nitrogen monoxide scavenger in an environment where nitrogen monoxide is present.
A sample for HPLC analysis was prepared as follows. 28 mg of NaNO2 (0.41 mmol, 16.4 equiv) was dissolved in 0.3 mL of water, and then the mixture solution was cooled to 0°C to 5°C. After introducing 0.2 mL of sulfuric acid (0.1 mmol, 4 equiv) to the mixture solution, 12.2 mg of Compound (4) (0.025 mmol, 1 equiv), which was prepared in Example 4, dissolved in 0.2 mL of acetone was introduced thereto. The mixture solution was stirred for 1 hour at room temperature. After the reaction was finished, water and dichloromethane were introduced to the reaction solution for extraction. The organic layer was separated, then dried with magnesium sulfate, and filtered. […]
Specifically, referring to FIG. 2A, the peak of Compound (4) of Example 4, which is the pharmaceutical composition sensitive to nitrogen monoxide, was detected at 14.2 minutes. On the other hand, referring to FIG. 2B, the peak of Compound (4) disappeared in an environment where excess nitrogen monoxide is present, and a peak detected at 7.7 minutes was generated.

[6] = test system: Raw 264.7 cell line; experiment: NO scavenging activity in LPS-treated immune cells (Griess reagent); assay type: cell-based; settings: Mus musculus, RAW264.7, Raw 264.7, LPS 500 ng/mL, 24 hours, read-out: NO Scavenging Activity (%) (Mean±SD)
[7] = test system: IFN-γ; experiment: IFN-γ reduction activity in Concanavalin A-treated splenocytes (quantitative ELISA); assay type: cell-based, C57BL/6 mouse; settings: Mus musculus, Splenocyte, Concanavalin A 5 µg/mL, 72 hours, read-out: IFN-γ Reduction Activity (%) (Mean±SD)
In short: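 Splenocytes from 8-week-old C57BL/6 mice at 5×10^6 cells/mL in RPMI 1640 with 10% FBS, stimulated with Concanavalin A (5 µg/mL) plus compound added concentration-dependently. Supernatant IFN-γ measured by quantitative ELISA after 72 h.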

[8] = Efficacy on DSS induced ulcerative colitis (disease activity index); assay type: in vivo, mice
Protocol: In order to establish an ulcerative colitis model, 2.5% DSS powder was mixed with drinking water and provided ad libitum. The DSS powder-containing drinking water was supplied for 5 to 6 days of disease induction period, and after that, normal drinking water was supplied.
The administered compounds of Table 21 were administered orally once daily. Hematochezia, diarrhea and body weight loss were scored according to the criteria shown in the following Table 22, and the scores were summed to calculate a disease activity index (DAI), which is shown in FIG. 4.
Efficacy of Compound (4) on ulcerative colitis was verified in the same manner as in Experimental Example 10-1, except that Compound (4) was used instead of Compound (1), and DSS was administered until day 5, and the drug was administered from day 6.

[9] = test system: splenocytes; experiment: Inhibitory activity on cell proliferation in splenocytes (CCK-8 analysis); assay type: cell-based, C57BL/6 mouse; settings: Mus musculus, Splenocyte, Concanavalin A 5 µg/mL, 72 hours, read-out: Inhibitory Activity on Cell Proliferation (%) (Mean±SD)
[10] = test system: splenocytes; experiment: NO scavenging activity in Concanavalin A-treated splenocytes (Griess assay); assay type: cell-based, C57BL/6 mouse; settings: Mus musculus, Splenocyte, Concanavalin A 5 µg/mL, 72 hours, read-out: NO Scavenging Activity (%) (Mean±SD)
In short: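 Splenocytes from 8-week-old C57BL/6 mice at 5×10^6 cells/mL in RPMI 1640/10% FBS, stimulated with Concanavalin A (5 µg/mL) plus […] test composition added at plating. After 72 h culture, remaining NO in supernatant measured by Griess assay.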

[11] = 200 mg/kg single oral dose, mice, two days after administration
[12] = 800 mg/kg single oral dose, mice, two days after administration

Row | Compound | hematological toxicity [1] | WBC Differential Counting (LYM) (% of Normal) [2, 11] | WBC Differential Counting (NEU) (% of Normal) [2, 11] | WBC (% of Normal) [2, 12] | WBC Differential Counting (LYM) (% of Normal) [2, 12] | WBC Differential Counting (NEU) (% of Normal) [2, 12] | rheumatoid arthritis-alleviating efficacy (arthritis score) ([3]; 10 mg/kg oral twice daily (BID), day 39 (p<0.05) and day 40 (p<0.01), FIG. 7) | rheumatoid arthritis-alleviating efficacy (arthritis score) ([3]; 40 mg/kg oral once daily, from day 33 after disease induction (p<0.01) to the end, FIG. 6) | MTD at 4 days [4] [mg/kg] | release of the low-molecular-weight compound in the presence of excess nitrogen monoxide (HPLC) [5] | activity at 10 µM [6] [%] | activity at 10 µM [7] [%] | efficacy in alleviating ulcerative colitis compared to tofacitinib ([8]; 25 mg/kg oral once daily, FIGS. 4 and 5) | efficacy on disease activity index (DAI) ([8]; DSS until day 5, drug from day 6, day 9 of the test, FIG. 5) | inhibition at 10 µM [9] [%] | hematological toxicity responses ([2]; single oral dose 200 mg/kg and 800 mg/kg, compared with the normal group) | activity at 10 µM [10] [%]
1 | C[C@@H]1CCN(C(=O)CC#N)C[C@@H]1N(C)c1ncnc2[nH]ccc12 [Tofacitinib, tofacitinib] | hematological toxicity was observed | 81.1±31.3 % of Normal | 68.3±15.7 % of Normal | 62.1±4.7 % of Normal | 61.2±4.6 % of Normal | 56.4±7.9 % of Normal | Statistically significant rheumatoid arthritis-alleviating efficacy was observed | statistically significant rheumatoid arthritis-alleviating efficacy was observed | 400 |  |  |  |  |  |  |  | 
2 | C[C@@H]1CCN(C(=O)CC#N)C[C@@H]1N(C)c1ncnc2c1ccn2C(=O)Nc1ccc(N(C)C)cc1N [Example 4, N-(2-amino-4-(dimethylamino)phenyl)-4-(((3R,4R)-1-(2-cyanoacetyl)-4-methylpiperidin-3-yl)(methyl)amino)-7H-pyrrolo[2,3-d]pyrimidine-7-carboxamide] |  |  |  |  |  |  |  |  |  | reacted with excess nitrogen monoxide to release tofacitinib | 68.7 ± 0.74 | 98.9 ± 0.03 | comparable or more superior efficacy | statistically significant efficacy was observed | 79.5 ± 6.67 | No hematological toxicity responses were observed | 91 ± 0.01
